Consider ten compounds from patent US7199148B2, “Broadspectrum substituted oxindole sulfonamide HIV protease inhibitors” (priority 2002, dated 2007).

Like-named read-outs stand apart in the source and are kept apart here.

The CC50 is the concentration giving 50% cytotoxicity. A lower CC50 goes with greater toxicity to the cells.

Assay type in all cases: cell-based
Series [1] is described as follows: Toxicity on mock-infected MT4 cells (MTT). The conditions noted are these: human. How it is done: (§1) HIV- or mock-infected MT4 cells were incubated for five days in the presence of various concentrations of the inhibitor. At the end of the incubation period, all HIV-infected cells have been killed by the replicating virus in the control cultures in the absence of any inhibitor. Cell viability is measured by measuring the concentration of MTT, a yellow, water soluble tetrazolium dye that is converted to a purple, water insoluble formazan in the mitochondria of living cells only. Upon solubilization of the resulting formazan crystals with isopropanol, the absorbance of the solution is monitored at 540 nm. The values correlate directly to the number of living cells remaining in the culture at the completion of the five day incubation. The inhibitory activity of the compound was monitored on the virus-infected cells and was expressed as EC50 and EC90. These values represent the amount of the compound required to protect 50% and 90%, respectively, of the cells from the cytopathogenic effect of the virus. The toxicity of the compound was measured on the mock-infected cells and was expressed as CC50, which represents the concentration of compound required to inhibit the growth of the cells by 50%. The selectivity index (SI) (ratio CC50/EC50) is an indication of the selectivity of the anti-HIV activity of the inhibitor. Wherever results are reported as e.g. pEC50 or pCC50 values, the result is expressed as the negative logarithm of the result expressed as EC50 or CC50 respectively.
(§2) As a measure of the broad spectrum activity of the present compounds, the fold resistance (FR), defined as FR=EC50(mutant strain)/EC50(HIV-1 strain LAI), was determined.

In series [2] the test system is HIV strain C. Description: Antiviral spectrum, clinically isolated mutant strain C. The conditions noted are these: FR=EC50(mutant strain)/EC50(HIV-1 strain LAI). How it is done:
as §1
(§3) Because of the increasing emergence of drug resistant HIV strains, the present compounds were tested for their potency against clinically isolated HIV strains harboring several mutations (Table 2 and 3). These mutations are associated with resistance to protease inhibitors and result in viruses that show various degrees of phenotypic cross-resistance to the currently commercially available drugs such as for instance saquinavir, ritonavir, nelfinavir, indinavir and amprenavir.
as §2

Series [3] relates to HIV strain E. The series is described as follows: Antiviral spectrum, clinically isolated mutant strain E. Particulars: FR=EC50(mutant strain)/EC50(HIV-1 strain LAI). How it is done: as §1, §3, §2
In series [4] the test system is HIV strain F. Description: Antiviral spectrum, clinically isolated mutant strain F. Particulars: FR=EC50(mutant strain)/EC50(HIV-1 strain LAI). How it is done: as §1, §3, §2
Series [5] concerns HIV strain D. Description: Antiviral spectrum, clinically isolated mutant strain D. The conditions noted are these: FR=EC50(mutant strain)/EC50(HIV-1 strain LAI). How it is done: as §1, §3, §2
Series [6] concerns HIV-1 strain LAI. Description: Cellular anti-HIV assay, MT4 cells, MTT read-out, wild type strain. How it is done:
as §1, with “The compounds of the present invention were examined for anti-viral activity in a cellular assay. […] The cellular assay was performed according to the following procedure. HIV- or” for “HIV- or”

The test system of series [7] is HIV strain A. The series is described as follows: Antiviral spectrum, clinically isolated mutant strain A. The conditions noted are these: FR=EC50(mutant strain)/EC50(HIV-1 strain LAI). How it is done:
as §1, §3, §2

Series [8] relates to HIV strain B. Description: Antiviral spectrum, clinically isolated mutant strain B. The conditions noted are these: FR=EC50(mutant strain)/EC50(HIV-1 strain LAI). How it is done: as §1, §3, §2
[9] abbreviates: Human immunodeficiency virus 1, 120 h, Table 1, MT4 cells, five days incubation, HIV-1 strain LAI, read-out: pEC50 (converted).
[10] abbreviates: Human immunodeficiency virus 1, MT4, Table 3, wild type HIV-LAI strain, read-out: WT (pEC50) (converted).

For the compound `CCC(C=C1C(=O)Nc2ccc(S(=O)(=O)N(CC(C)C)CC(O)C(Cc3ccccc3)NC(=O)OC3COC4OCCC34)cc21)CC` (stereo not shown) [Compound 5, (1-Benzyl-3-{[3-(2-ethyl-butylidene)-2-oxo-2,3-dihydro-1H-indole-5-sulfonyl]-isobutyl-amino}-2-hydroxy-propyl)-carbamic acid hexahydro-furo[2,3-b]furan-3-yl ester], the half-maximal cytotoxic concentration (CC50) at 5 days in series [1] was 63100 nM. Moreover, in series [2], the “C (FR towards mutant C)” value is on record as 2.0. Moreover, in series [3], the “E (FR towards mutant E)” value stood at 4.2. Further, the “F (FR towards mutant F)” value in series [4] is recorded as 6.5. Also, the “D (FR towards mutant D)” value in series [5] came to 2.0. In addition, the results for the EC50 in series [6] (setting [9]) and in series [6] (setting [10]) were 16.6 nM and 15.8 nM, respectively. Moreover, the “A (FR towards mutant A)” value in series [7] is recorded as 1.9. Also, the “B (FR towards mutant B)” value in series [8] came to 8.3.
In series [1], `CC(C)CN(CC(O)C(Cc1ccccc1)NC(=O)OC1COC2OCCC12)S(=O)(=O)c1ccc2c(c1)/C(=C\c1ccco1)C(=O)N2` (stereo not shown) [Compound 7, Hexahydrofuro[2,3-b]furan-3-yl N-{1-benzyl-3-[({3-[(E)-2-furylmethylidene]-2-oxo-2,3-dihydro-1H-indol-5-yl}sulfonyl) (isobutyl)amino]-2-hydroxypropyl}carbamate] had a half-maximal cytotoxic concentration (CC50) at 5 days of 79400 nM. For the same compound, the “C (FR towards mutant C)” value in series [2] is given as 1.7. In series [3], the “E (FR towards mutant E)” value turned out to be 5.9. Also, the “F (FR towards mutant F)” value in series [4] turned out to be 1.9. Moreover, the “D (FR towards mutant D)” value in series [5] is given as 2.4. Also, the EC50 in series [6] (setting [9]) is 19.5 nM; in series [6] (setting [10]), 20 nM. Also, in series [7], the “A (FR towards mutant A)” value is given as 1.8. Besides, the “B (FR towards mutant B)” value in series [8] is 2.6.
For the compound `CC(C)CN(C[C@@H](O)[C@H](Cc1ccccc1)NC(=O)OC1COC2OCCC12)S(=O)(=O)c1ccc2c(c1)CC(=O)N2` (stereo in doubt) [Compound 21, Hexahydrofuro[2,3-b]furan-3-yl N-(1-benzyl-2-hydroxy-3-{isobutyl[(2-oxo-2,3-dihydro-1H-indol-5-yl)sulfonyl]amino}propyl}carbamate], in series [1], the CC50 at 5 days is 100000 nM. In addition, the “C (FR towards mutant C)” value in series [2] was 0.7. Moreover, the “E (FR towards mutant E)” value in series [3] came to 0.56. For the same compound, the “F (FR towards mutant F)” value in series [4] stood at 1.2. For the same compound, the “D (FR towards mutant D)” value in series [5] is on record as 0.33. Moreover, the EC50 in series [6] (setting [10]) was 158 nM. Also, the “A (FR towards mutant A)” value in series [7] was 1.0. The “B (FR towards mutant B)” value in series [8] is 1.1.
As to `Cc1ccc(C=C2C(=O)Nc3ccc(S(=O)(=O)N(CC(C)C)CC(OP(=O)(O)O)C(Cc4ccccc4)NC(=O)OC4COC5OCCC45)cc32)o1` (stereo not shown) [Compound 19, (1-Benzyl-3-{isobutyl-[3-(5-methyl-furan-2-ylmethylene)-2-oxo-2,3-dihydro-1H-indole-5-sulfonyl]-amino}-2-phosphonooxy-propyl)-carbamic acid hexahydro-furo[2,3-b]furan-3-yl ester], the EC50 in series [6] (setting [9]) is 302 nM.
For `CC(C)CN(CC(O)C(Cc1ccccc1)NC(=O)OC1COC2OCCC12)S(=O)(=O)c1ccc2c(c1)C(=Cc1cccn1C)C(=O)N2` (stereo not shown) [Compound 4, (1-Benzyl-2-hydroxy-3-{isobutyl-[3-(1-methyl-1H-pyrrol-2-ylmethylene)-2-oxo-2,3-dihydro-1H-indole-5-sulfonyl]-amino}-propyl)-carbamic acid hexahydro-furo[2,3-b]furan-3-yl ester], in series [1], the 50% cytotoxic concentration (CC50) at 5 days is 100000 nM. Moreover, in series [2], the “C (FR towards mutant C)” value is on record as 1.7. Further, the “E (FR towards mutant E)” value in series [3] was 2.4. The “F (FR towards mutant F)” value in series [4] was 2.0. In series [5], the “D (FR towards mutant D)” value is reported as 1.9. The EC50 was 15.5 nM in series [6] (setting [9]) and 15.8 nM in series [6] (setting [10]). In addition, in series [7], the “A (FR towards mutant A)” value was 2.3. Besides, the “B (FR towards mutant B)” value in series [8] was 1.9.
On to `Cc1ccc(C=C2C(=O)Nc3ccc(S(=O)(=O)N(CC(C)C)CC(O)C(Cc4ccccc4)NC(=O)OC4COC5OCCC45)cc32)s1` (stereo not shown) [Compound 3, (1-Benzyl-2-hydroxy-3-{isobutyl-[3-(5-methyl-thiophen-2-ylmethylene)-2-oxo-2,3-dihydro-1H-indole-5-sulfonyl]-amino}-propyl)-carbamic acid hexahydro-furo[2,3-b]furan-3-yl ester], for which the CC50 at 5 days in series [1] is 100000 nM. In addition, the “C (FR towards mutant C)” value in series [2] is 2.6. Besides, the “E (FR towards mutant E)” value in series [3] turned out to be 7.1. Moreover, the “F (FR towards mutant F)” value in series [4] came out at 6.8. Besides, the “D (FR towards mutant D)” value in series [5] stood at 3.0. Further, the EC50 is 11.5 nM in series [6] (setting [9]) and 12.6 nM in series [6] (setting [10]). Further, in series [7], the “A (FR towards mutant A)” value stood at 3.0. The “B (FR towards mutant B)” value in series [8] worked out at 3.8.
As for `CC(C)CN(CC(O)C(Cc1ccccc1)NC(=O)OC1COC2OCCC12)S(=O)(=O)c1ccc2c(c1)C(=Cc1ccc(C(=O)O)cc1)C(=O)N2` (stereo not shown) [Compound 20, 4-(5-{[3-(Hexahydro-furo[2,3-b]furan-3-yloxycarbonylamino)-2-hydroxy-4-phenyl-butyl]-isobutyl-sulfamoyl}-2-oxo-1,2-dihydro-indol-3-ylidenemethyl)-benzoic acid], the EC50 in series [6] (setting [9]) was 891 nM.
In turn, `Cc1ccc(C=C2C(=O)Nc3ccc(S(=O)(=O)N(CC(C)C)CC(O)C(Cc4ccccc4)NC(=O)OC4COC5OCCC45)cc32)o1` (stereo not shown) [Compound 2, (1-Benzyl-2-hydroxy-3-{isobutyl-[3-(5-methyl-furan-2-ylmethylene)-2-oxo-2,3-dihydro-1H-indole-5-sulfonyl]-amino}-propyl)-carbamic acid hexahydro-furo[2,3-b]furan-3-yl ester] showed a CC50 at 5 days in series [1] of 20000 nM. Moreover, the “C (FR towards mutant C)” value in series [2] came to 1. Moreover, the “E (FR towards mutant E)” value in series [3] amounted to 3.1. Moreover, in series [4], the “F (FR towards mutant F)” value is reported as 3.9. Moreover, the “D (FR towards mutant D)” value in series [5] came out at 3.8. For the same compound, the EC50 in series [6] (setting [9]) is 8.51 nM; in series [6] (Human immunodeficiency virus 1, MT4, read-out: WT (pEC50) (converted)) it was 9.77 nM. Further, in series [7], the “A (FR towards mutant A)” value is on record as 1.7. In series [8], the “B (FR towards mutant B)” value is 3.6.
In the case of `CC(C)CN(CC(O)C(Cc1ccccc1)NC(=O)OC1COC2OCCC12)S(=O)(=O)c1ccc2c(c1)C(=Cc1ccc[nH]1)C(=O)N2` (stereo not shown) [Compound 1, (1-Benzyl-2-hydroxy-3-{isobutyl-[2-oxo-3-(1H-pyrrol-2-ylmethylene)-2,3-dihydro-1H-indole-5-sulfonyl]-amino}-propyl)-carbamic acid hexahydrofuro[2,3-b]furan-3-yl ester], half-maximal cytotoxicity in series [1] (CC50 at 5 days) was put at 12600 nM. Moreover, in series [2], the “C (FR towards mutant C)” value stood at 2.1. Besides, in series [3], the “E (FR towards mutant E)” value is 6.2. In addition, in series [4], the “F (FR towards mutant F)” value is recorded as 10. Also, in series [5], the “D (FR towards mutant D)” value was 2.0. Besides, the EC50 in series [6] (setting [9]) and in series [6] (setting [10]) was 3.16 nM each time. Moreover, the “A (FR towards mutant A)” value in series [7] is reported as 4.3. Besides, in series [8], the “B (FR towards mutant B)” value came to 8.7.
On to `COc1ccc(C=C2C(=O)Nc3ccc(S(=O)(=O)N(CC(C)C)CC(O)C(Cc4ccccc4)NC(=O)OC4COC5OCCC45)cc32)cc1` (stereo not shown) [Compound 8, (1-Benzyl-2-hydroxy-3-{isobutyl-[3-(4-methoxy-benzylidene)-2-oxo-2,3-dihydro-1H-indole-5-sulfonyl]-amino}-propyl)-carbamic acid hexahydro-furo[2,3-b]furan-3-yl ester], for which the cytotoxic concentration (CC50) at 5 days in series [1] was 63100 nM. Besides, the “C (FR towards mutant C)” value in series [2] is 1.5. Also, the “E (FR towards mutant E)” value in series [3] amounted to 2.0. The “F (FR towards mutant F)” value in series [4] was 1.7. Further, the “D (FR towards mutant D)” value in series [5] stood at 1.5. Also, the EC50 in series [6] (setting [9]) and in series [6] (setting [10]) was 20 nM each time. For the same compound, the “A (FR towards mutant A)” value in series [7] is recorded as 1.7. Further, the “B (FR towards mutant B)” value in series [8] is recorded as 5.0.
